{"source": "patent US11259516B2", "about": "“Method and apparatus for capsular delivery to plants” (priority 2017, dated 2022)", "key": {"[1]": {"tested_on": "Schinus terebinthifolius (Broad-leafed pepper tree)", "parameters": "key: X indicates that the given herbicide is suitable for controlling the given weed", "conditions": "cited from earlier work"}, "[2]": {"tested_on": "Tabebuia aurea (Tabebuia)", "parameters": "key: X indicates that the given herbicide is suitable for controlling the given weed", "conditions": "cited from earlier work"}, "[3]": {"tested_on": "Schefflera actinophyla (Umbrella tree)", "parameters": "key: X indicates that the given herbicide is suitable for controlling the given weed", "conditions": "cited from earlier work"}, "[4]": {"tested_on": "Senegalia catechu (Cutch tree)", "parameters": "key: X indicates that the given herbicide is suitable for controlling the given weed", "conditions": "cited from earlier work"}, "[5]": {"tested_on": "Erythrina crista-galli (Cockspur coral tree)", "parameters": "key: X indicates that the given herbicide is suitable for controlling the given weed", "conditions": "cited from earlier work"}, "[6]": {"tested_on": "Triadica sebifera (Chinese tallow tree)", "parameters": "key: X indicates that the given herbicide is suitable for controlling the given weed", "conditions": "cited from earlier work"}, "[7]": {"tested_on": "Cestrum parqui (Green cestrum)", "parameters": "key: X indicates that the given herbicide is suitable for controlling the given weed", "conditions": "cited from earlier work"}, "[8]": {"tested_on": "Harungana madagarcariensis (Harungana)", "parameters": "key: X indicates that the given herbicide is suitable for controlling the given weed", "conditions": "cited from earlier work"}, "[9]": {"tested_on": "western white gum (Eucalyptus argophloia)", "assay": "Example 2: glyphosate and hexazinone capsules, thinning trial in western white gum plantation", "conditions": "Eucalyptus argophloia", "description": "The trial for this example was established at the HQP plantation near Jandowae on 6 Feb. 2018. The trees were planted in rows 4 m apart at 1.5 m spacing. Trees were 6-10 m tall. Trees to be maintained were marked and the other trees were treated.\nFour treatments were used, with capsules as follows:\nThe capsules used were HPMC Size 0 Natural TR.V700 colour cap and body Vcaps (Suzhou Capsugel® Ltd, China). Capsules were hand packed using a Capsugel Profiller apparatus (https://www.capsugel.com/biopharmaceutical-products/profiller). An embodiment of apparatus 10 adapted to include handle 2201 (FIG. 17) was used to drill a hole into the stem, insert the herbicide capsule and seal with a wooden plug.\nHerbicide capsules were applied to approximately 10 trees for each of the treatments. The number of capsules applied to each tree was independent of tree circumference which was measured at chest height. The tree circumferences range was from 20 to 34 centimetres. At 4 weeks, a small sample of trees were cut down with a chainsaw and cross-sections of stems containing the sites of insertion of the herbicide capsules removed. These stem pieces were returned to the laboratory and split open longitudinally through the insertion point. Tree health was assessed at 11 weeks (24 Apr. 2018) on a 0-4 scale with 0 being dead and 4 being healthy. Observations were made for evidence of flashback in untreated trees."}, "Populus spp (Poplars)": {"tested_on": "Populus spp (Poplars)", "parameters": "key: X indicates that the given herbicide is suitable for controlling the given weed", "conditions": "cited from earlier work"}, "[10]": {"tested_on": "Senna pendula (Winter senna)", "parameters": "key: X indicates that the given herbicide is suitable for controlling the given weed", "conditions": "cited from earlier work"}, "[11]": {"tested_on": "Rubus anglocandicans (Blackberry)", "parameters": "key: X indicates that the given herbicide is suitable for controlling the given weed", "conditions": "cited from earlier work"}, "Phoenix spp (Palms)": {"tested_on": "Phoenix spp (Palms)", "parameters": "key: X indicates that the given herbicide is suitable for controlling the given weed", "conditions": "cited from earlier work"}, "[12]": {"tested_on": "Ligustrum sinense (Chinese privet)", "parameters": "key: X indicates that the given herbicide is suitable for controlling the given weed", "conditions": "cited from earlier work"}, "[13]": {"tested_on": "Gleditsia triacanthos (Honey locust)", "parameters": "key: X indicates that the given herbicide is suitable for controlling the given weed", "conditions": "cited from earlier work"}, "[14]": {"tested_on": "Cinnamonum camphora (Camphor laurel)", "parameters": "key: X indicates that the given herbicide is suitable for controlling the given weed", "conditions": "cited from earlier work"}, "Lantana camara (Lantana)": {"tested_on": "Lantana camara (Lantana)", "parameters": "key: X indicates that the given herbicide is suitable for controlling the given weed", "conditions": "cited from earlier work"}}, "data": [{"smiles": "O=C(O)CNCP(=O)(O)O", "note": "[Glyphosate]", "values": [{"measurement": "suitability of herbicide for control of weed", "setting": "[1]", "value": "X"}, {"measurement": "suitability of herbicide for control of weed", "setting": "[2]", "value": "X"}, {"measurement": "suitability of herbicide for control of weed", "setting": "[3]", "value": "X"}, {"measurement": "suitability of herbicide for control of weed", "setting": "[4]", "value": "X"}, {"measurement": "suitability of herbicide for control of weed", "setting": "[5]", "value": "X"}, {"measurement": "suitability of herbicide for control of weed", "setting": "[6]", "value": "X"}, {"measurement": "suitability of herbicide for control of weed", "setting": "[7]", "value": "X"}, {"measurement": "suitability of herbicide for control of weed", "setting": "[8]", "value": "X"}, {"measurement": "flashback in the trees marked for retention", "setting": "[9]; 11 week assessment", "value": "no flashback was observed"}, {"measurement": "trees died / killed (health rating 0-4 scale, 0 dead)", "setting": "[9]; 11 weeks post treatment, 1 or 2 capsules per tree", "value": "majority of trees"}, {"measurement": "suitability of herbicide for control of weed", "setting": "Populus spp (Poplars)", "value": "X"}, {"measurement": "suitability of herbicide for control of weed", "setting": "[10]", "value": "X"}, {"measurement": "suitability of herbicide for control of weed", "setting": "[11]", "value": "X"}, {"measurement": "suitability of herbicide for control of weed", "setting": "Phoenix spp (Palms)", "value": "X"}, {"measurement": "suitability of herbicide for control of weed", "setting": "[12]", "value": "X"}, {"measurement": "suitability of herbicide for control of weed", "setting": "[13]", "value": "X"}, {"measurement": "suitability of herbicide for control of weed", "setting": "[14]", "value": "X"}, {"measurement": "suitability of herbicide for control of weed", "setting": "Lantana camara (Lantana)", "value": "X"}]}]}
